Publication PMC12858405, “Ideal efficacy photoswitching for chromocontrol of TRPC4/5 channel functions in live tissues” (Nature Chemical Biology, 2026)

Biological target: T1, TRPC4 (Mus musculus, UniProt Q9QUQ5)
T1 construct: expressed in transfected cells; host or cells: HEK293
T1 sequence (Q9QUQ5 1-890 isoform Q9QUQ5-2): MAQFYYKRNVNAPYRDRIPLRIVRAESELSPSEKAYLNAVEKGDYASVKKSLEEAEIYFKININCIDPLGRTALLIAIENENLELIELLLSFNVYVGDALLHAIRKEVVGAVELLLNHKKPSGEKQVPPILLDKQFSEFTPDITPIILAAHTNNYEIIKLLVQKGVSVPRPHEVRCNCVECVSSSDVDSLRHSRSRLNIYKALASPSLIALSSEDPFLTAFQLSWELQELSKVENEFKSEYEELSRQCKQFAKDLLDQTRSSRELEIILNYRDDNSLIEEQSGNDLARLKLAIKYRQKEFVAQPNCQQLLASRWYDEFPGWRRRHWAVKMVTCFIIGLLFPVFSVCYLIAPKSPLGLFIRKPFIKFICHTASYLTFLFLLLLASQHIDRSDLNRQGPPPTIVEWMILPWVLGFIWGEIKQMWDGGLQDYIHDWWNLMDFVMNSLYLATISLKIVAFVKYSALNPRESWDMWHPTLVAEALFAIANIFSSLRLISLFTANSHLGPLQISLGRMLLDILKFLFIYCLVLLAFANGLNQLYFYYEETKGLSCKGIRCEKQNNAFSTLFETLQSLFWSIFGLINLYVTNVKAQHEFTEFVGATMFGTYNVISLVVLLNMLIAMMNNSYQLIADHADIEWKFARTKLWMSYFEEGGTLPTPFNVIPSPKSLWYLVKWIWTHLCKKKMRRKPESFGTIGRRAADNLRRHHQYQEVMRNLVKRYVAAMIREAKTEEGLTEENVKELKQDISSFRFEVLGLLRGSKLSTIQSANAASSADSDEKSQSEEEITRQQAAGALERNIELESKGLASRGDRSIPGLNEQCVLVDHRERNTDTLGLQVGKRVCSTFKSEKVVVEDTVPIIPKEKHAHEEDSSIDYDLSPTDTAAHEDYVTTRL
Assay: Whole-cell patch clamp with monochromated photoswitching, TRPC4-expressing HEK293 cells
Assay type: cell-based
Details: 10 nM, Vh −80 mV, action spectrum 330-505 nm
Excerpt: We next performed electrophysiological patch clamp experiments to characterize the action and specificity of channel modulation in more detail. […] Secondly, electrophysiology readouts linearly and temporally resolve ionic currents through the activated channels, unlike the delayed and attenuated fluorometric Ca^2+ influx analyses in FLIPR. Thirdly, the electrophysiology setup can use narrow-bandwidth monochromated light at any wavelength.
The repeatability of on–off photocycling allowed us to extract action spectra for both (1) photoactivation (Fig. 2d,e) and (2) photodeactivation (Fig. 2f,g) in situ in live cells.
The advantage of the ephys setup is that freely chosen monochromated wavelengths can be used for photoswitching, while in parallel there is no optical imaging light to counteract these optimal wavelengths: and this allows for optimising the photoswitchability.
repeatability of on/off photocycling allowed us to extract action spectra for both (1) photoactivation (Fig. 2d,e) and (2) photodeactivation (Fig. 2f,g) in situ in live cells.
physiological whole-cell recordings of TRPC4 currents in voltage clamp mode (a,b,d-g: Vh = -80 mV; c: Vh scan)
return to baseline currents throughout the applied voltage range. d-g, Spectral scans to extract the wavelength […]

- Wavelength range for effective off-photoswitching (channel currents): 400-480 nm
Structure (SMILES): Cn1c(=O)n(CCCO)c(=O)c2c1nc(Oc1ccc(N=Nc3ccccc3)c(OC(F)(F)F)c1)n2Cc1ccc(Cl)cc1 [AzPico]
